Source: US20230167073A1 (Teijin Pharma Limited, priority 2020, published 2023)

Molecular target: T1, Human TRPC6 (Homo sapiens, UniProt Q9Y210)
T1 construct: expressed in transfected cells
T1 sequence (Q9Y210 1-931): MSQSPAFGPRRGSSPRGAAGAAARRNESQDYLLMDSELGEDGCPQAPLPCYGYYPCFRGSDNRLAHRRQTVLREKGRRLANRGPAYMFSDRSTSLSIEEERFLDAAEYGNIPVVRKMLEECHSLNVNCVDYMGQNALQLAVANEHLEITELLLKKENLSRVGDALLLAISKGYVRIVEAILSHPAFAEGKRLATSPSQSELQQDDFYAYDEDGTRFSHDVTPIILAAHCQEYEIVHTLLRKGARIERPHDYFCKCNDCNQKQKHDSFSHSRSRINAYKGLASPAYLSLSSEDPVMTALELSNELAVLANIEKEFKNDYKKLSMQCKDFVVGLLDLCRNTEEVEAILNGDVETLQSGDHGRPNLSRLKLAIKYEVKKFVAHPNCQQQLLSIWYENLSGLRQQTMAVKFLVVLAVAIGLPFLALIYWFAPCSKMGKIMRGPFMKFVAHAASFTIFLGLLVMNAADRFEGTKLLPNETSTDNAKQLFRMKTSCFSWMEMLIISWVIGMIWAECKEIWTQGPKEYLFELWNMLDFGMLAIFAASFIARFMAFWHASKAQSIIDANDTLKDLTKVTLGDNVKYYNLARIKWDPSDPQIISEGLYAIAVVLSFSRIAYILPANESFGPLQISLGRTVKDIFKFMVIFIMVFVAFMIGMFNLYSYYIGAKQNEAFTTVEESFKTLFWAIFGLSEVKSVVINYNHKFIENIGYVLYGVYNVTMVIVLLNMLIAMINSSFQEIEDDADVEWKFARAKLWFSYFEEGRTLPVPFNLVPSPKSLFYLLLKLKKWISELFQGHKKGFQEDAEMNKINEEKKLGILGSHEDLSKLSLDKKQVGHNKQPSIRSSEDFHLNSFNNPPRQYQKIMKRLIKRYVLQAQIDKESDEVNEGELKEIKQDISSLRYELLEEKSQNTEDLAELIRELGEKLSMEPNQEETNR
Test: Evaluation of TRPC6 channel inhibitory activity (1), FLIPR Calcium 5 Assay Kit, OAG stimulation (Compound Nos. 1-1293)
Assay type: cell-based
Conditions: Human TRPC6 stably-expressing cells, OAG 30 μM, FLIPR Calcium 5 Assay Kit; read-out: Inhibitory activity (pIC50 class) (converted)
Outline: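 The FLIPR signal is maximum fluorescence after 30 μM OAG minus minimum before compound, measured in a human TRPC6 stable line loaded with Calcium 5 dye. Compounds were preincubated 20 min. pIC50 came from four-parameter logistic fitting of inhibition rates and is given as symbol ranges.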

| Structure (SMILES) | IC50 |
| --- | --- |
| Cc1nc(Oc2cc(C#N)ccc2-c2ccc(CCN)nc2)cc(-c2ccccn2)n1 [Compound 166, 4-[6-(2-aminoethyl)pyridin-3-yl]-3-(2-methyl-6-pyridin-2-ylpyrimidin-4-yl)oxybenzonitrile] | 10 to 1000 nM |
| N#Cc1ccc(-c2ccc(CCN)nc2)c(Oc2cc(Cl)cnn2)c1 [Compound 79, 4-[6-(2-aminoethyl)pyridin-3-yl]-3-(5-chloropyridazin-3-yl)oxybenzonitrile] | > 1000 nM |
| Cn1nc(-c2nccs2)cc1Oc1cc(C#N)ccc1-c1ccc([C@H](O)CN)cn1 [compound 536, 4-[5-[(1S)-2-amino-1-hydroxyethyl]pyridin-2-yl]-3-[2-methyl-5-(1,3-thiazol-2-yl)pyrazol-3-yl]oxybenzonitrile] | < 10 nM |
| Cc1nc(Oc2cc(C#N)ccc2-n2cc(CC(N)C(=O)O)c3ccccc32)cc(-c2ccccc2)n1 (centres unmarked) [compound 449, 2-amino-3-[1-[4-cyano-2-(2-methyl-6-phenylpyrimidin-4-yl)oxyphenyl]indol-3-yl]propanoic acid] | > 1000 nM |
| N#Cc1ccc(-c2ccc(CC3(N)COC3)cn2)c(Oc2cc(N3CCCC3)ncc2C#N)c1 [compound 738, 4-[2-[5-[(3-aminooxetan-3-yl)methyl]pyridin-2-yl]-5-cyanophenoxy]-6-pyrrolidin-1-ylpyridine-3-carbonitrile] | 10 to 1000 nM |
| Cn1nc(C2CC2)cc1Oc1cc(C#N)ccc1-c1ccc(CCN)cc1 [Compound 213, 4-[4-(2-aminoethyl)phenyl]-3-(5-cyclopropyl-2-methylpyrazol-3-yl)oxybenzonitrile] | < 10 nM |
| Cc1nc(Oc2cc(C#N)ccc2-c2ccc(C(CN)OCC(=O)O)cc2)cc(N2CCOCC2)n1 (centres unmarked) [Compound 63, 2-[2-amino-1-[4-[4-cyano-2-(2-methyl-6-morpholin-4-ylpyrimidin-4-yl)oxyphenyl]phenyl]ethoxy] acetic acid] | > 1000 nM |
| Cc1nc(Oc2cc(C#N)ccc2-c2ccc([C@H](O)CN)cn2)cc(-c2ccccn2)n1 [compound 604, 4-[5-[(1S)-2-amino-1-hydroxyethyl]pyridin-2-yl]-3-(2-methyl-6-pyridin-2-ylpyrimidin-4-yl)oxybenzonitrile] | < 10 nM |
| Cc1cc(Oc2cc(C#N)ccc2-c2ccc([C@H](O)CN)cn2)cc(N2CCCCC2)n1 [compound 500, 4-[5-[(1S)-2-amino-1-hydroxyethyl]pyridin-2-yl]-3-(2-methyl-6-piperidin-1-ylpyridin-4-yl)oxybenzonitrile] | < 10 nM |
| Cc1nc(N2CCOCC2)cc(C2(c3cc(C#N)ccc3-c3ccc(CCN)cc3)CC2)n1 [Compound No. 1227, 4-[4-(2-Aminoethyl)phenyl]-3-[1-(2-methyl-6-morpholin-4-ylpyrimidin-4-yl)cyclopropyl]benzonitrile] | 10 to 1000 nM |
| N#Cc1ccc(-c2ccc(CCN)cc2)c(Oc2cnnc(N3CCCCC3)c2)c1 [Compound 66, 4-[4-(2-aminoethyl)phenyl]-3-(6-piperidin-1-ylpyridazin-4-yl)oxybenzonitrile] | < 10 nM |
| N#Cc1ccc(-c2ccc(CCN)nc2)c(Oc2cnnc(Cl)c2)c1 [Compound 76, 4-[6-(2-aminoethyl)pyridin-3-yl]-3-(6-chloropyridazin-4-yl)oxybenzonitrile] | > 1000 nM |
| Cc1ccc(-c2cc(Oc3cc(C#N)ccc3-c3ccc(CCN)cc3)n(C)n2)nc1 [Compound 164, 4-[4-(2-aminoethyl)phenyl]-3-[2-methyl-5-(5-methylpyridin-2-yl)pyrazol-3-yl]oxybenzonitrile] | < 10 nM |
| N#Cc1ccc(-c2ncc(CCN)cn2)c([S+]([O-])c2cnnc(N3CCCCC3)c2)c1 (centres unmarked) [Compound No. 1276, 4-[5-(2-Aminoethyl)pyrimidin-2-yl]-3-(6-piperidin-1-ylpyridazin-4-yl)sulfinylbenzonitrile] | > 1000 nM |
| Cc1cc(Oc2nc(C#N)ccc2-c2ncc(CN)cn2)cc(N2CCOCC2)n1 [compound 1285, 5-[5-(aminomethyl)pyrimidin-2-yl]-6-(2-methyl-6-morpholin-4-ylpyridin-4-yl)oxypyridine-2-carbonitrile] | > 1000 nM |
| Cn1nc(-c2ccccc2)cc1Oc1cc(C#N)ccc1-c1ccc(C(N)CO)cn1 (centres unmarked) [compound 469, 4-[5-(1-amino-2-hydroxyethyl)pyridin-2-yl]-3-(2-methyl-5-phenylpyrazol-3-yl)oxybenzonitrile] | < 10 nM |
| N#Cc1ccc(-c2ccc(C3(CN)CC3)cc2)c(Oc2cnnc(-c3ccccc3)c2)c1 [Compound 83, 4-[4-[1-(aminomethyl)cyclopropyl]phenyl]-3-(6-phenylpyridazin-4-yl)oxybenzonitrile] | > 1000 nM |

Other lines, results leading:

| IC50 | Structure (SMILES) |
| --- | --- |
| 10 to 1000 nM | N#Cc1ccc(-c2ccc(CCN)cn2)c(Oc2nnc(C(F)(F)F)s2)c1 [Compound No. 712, 4-[5-(2-Aminoethyl)pyridin-2-yl]-3-[[5-(trifluoromethyl)-1,3,4-thiadiazol-2-yl]oxy]benzonitrile] |
| < 10 nM | CC(C)Cc1cc(Oc2cc(C#N)ccc2-c2ccc(CCN)cn2)n(C)n1 [Compound 228, 4-[5-(2-aminoethyl)pyridin-2-yl]-3-[2-methyl-5-(2-methylpropyl)pyrazol-3-yl]oxybenzonitrile] |
| < 10 nM | Cc1ncsc1-c1cc(Oc2cc(C#N)ccc2-c2ncc(CN)cn2)n(C)n1 [compound 958, 4-[5-(aminomethyl)pyrimidin-2-yl]-3-[2-methyl-5-(4-methyl-1,3-thiazol-5-y)pyrazol-3-yl]oxybenzonitrile] |
| 10 to 1000 nM | Cc1cccc(-c2cc(Oc3cc(C#N)ccc3-c3ncc(CN)cn3)n(C)n2)n1 [compound 650, 4-[5-(aminomethyl)pyrimidin-2-yl]-3-[2-methyl-5-(6-methylpyridin-2-yl)pyrazol-3-yl]oxybenzonitrile] |
| 10 to 1000 nM | N#Cc1ccc(-c2ncc(CN)cn2)c(Oc2cnnc(OC3CCCC3)c2)c1 [compound 818, 4-[5-(aminomethyl)pyrimidin-2-yl]-3-(6-cyclopentyloxypyridazin-4-yl)oxybenzonitrile] |
| > 1000 nM | CC(C)c1nc(Oc2cc(C#N)ccc2-c2ncc(CN)cn2)n(C)n1 [compound 814, 4-[5-(aminomethyl)pyrimidin-2-yl]-3-[(2-methyl-5-propan-2-yl-1,2,4-triazol-3-yl)oxy]benzonitrile] |
| 10 to 1000 nM | Cc1c(Oc2cc(C#N)ccc2-c2ncc(CCN)cn2)cnn1CC(F)(F)F [compound 836, 4-[5-(2-aminoethyl)pyrimidin-2-yl]-3-[5-methyl-1-(2,2,2-trifluoroethyl)pyrazol-4-yl]oxybenzonitrile] |
| < 10 nM | Cn1nc(C2CC2)cc1Oc1cc(C#N)ccc1-c1ccc(CCN)cn1 [Compound 202, 4-[5-(2-aminoethyl)pyridin-2-yl]-3-(5-cyclopropyl-2-methylpyrazol-3-yl)oxybenzonitrile] |
| > 1000 nM | N#Cc1ccc(-c2ncc(CN)cn2)c(Oc2cc(N3CCOCC3)cnn2)c1 [compound 535, 4-[5-(aminomethyl)pyrimidin-2-yl]-3-(5-morpholin-4-ylpyridazin-3-yl)oxybenzonitrile] |
| < 10 nM | Cc1nn(CC(C)C)cc1Oc1cc(C#N)ccc1-c1ncc(CCN)cn1 [compound 801, 4-[5-(2-aminoethyl)pyrimidin-2-yl]-3-[3-methyl-1-(2-methylpropyl)pyrazol-4-yl]oxybenzonitrile] |
| > 1000 nM | N#Cc1ccc(-c2ncc(CN)cn2)c(Oc2cnnc(-c3ccccn3)c2)c1 [compound 817, 4-[5-(aminomethyl)pyrimidin-2-yl]-3-(6-pyridin-2-ylpyridazin-4 yl)oxybenzonitrile] |
| < 10 nM | Cn1nc(-c2ccncn2)cc1Oc1cc(C#N)ccc1-c1ncc(CN)cn1 [compound 932, 4-[5-(aminomethyl)pyrimidin-2-yl]-3-(2-methyl-5-pyrimidin-4-ylpyrazol-3-yl)oxybenzonitrile] |
| > 1000 nM | Cc1nc(CN2CCCC2)cn1Cc1cc(C#N)ccc1-c1ncc(CCN)cn1 [compound 1175, 4-[5-(2-aminoethyl)pyrimidin-2-yl]-3-[[2-methyl-4-(pyrrolidin-1-ylmethyl)imidazol-1-yl]methyl]benzonitrile] |
| < 10 nM | Cn1nc(-c2cccc(F)c2)cc1Oc1cc(C#N)ccc1-c1ncc([C@H](O)CN)cn1 (stereo in doubt) [compound 404, 4-[5-(2-amino-1-hydroxyethyl)pyrimidin-2-yl]-3-[5-(3-fluorophenyl)-2-methylpyrazol-3 yl]oxybenzonitrile] |
| > 1000 nM | Cc1nn(-c2ccccn2)c(C)c1Oc1cc(C#N)ccc1-c1ncc(CCN)cn1 [compound 941, 4-[5-(2-aminoethyl)pyrimidin-2-yl]-3-(3,5-dimethyl-1-pyridin-2-ylpyrazol-4-yl)oxybenzonitrile] |
